# Data as given in patent US4616025A, “Thiazolidine derivatives, process for the preparation and pharmaceutical compositions thereof” (Richter Gedeon Vegyeszeti Gyar RT, priority 1983, dated 1986).
# Assays:
# [1] = test system: aspirin-induced gastric ulcers; test: Aspirin-induced stomach ulcer; assay type: in vivo, rat (female H-Wistar); settings: Aspirin (control) 100 mg/kg p.o., n=20
# Experimental: It is known that the non-steroidal antiinflammatory agents induce gastointestinal ulceration to certain extent (Drugs and Peptic Ulcer, Ed. Pfeiffer, CRC Press, New York 1982). To test anti-ulcer compounds the so-called Aspirin-induced ulcer model is widely used. Female H-Wistar rats weighing 120-150 g each were fasted for 24 hours. Water was allowed ad libitum. The stomach ulcer was induced by oral administration of 100 mg/kg Aspirin (in Tween 80 suspension). The test drug was given simultaneously with the administration of Aspirin, orally. The animals were killed by an overdose of ether, 4 hours after treatment. The stomach was excised and cut along the large curvature. The contents were slightly washed and the haemorrhagic lesions in the glandular surface were counted. When evaluating the test results, the number of ulcers per stomach or the ulcer-free animals were determined.
# [2] = test system: intestinal ulceration induced by indomethacin; settings: literature; cited from earlier work
# [3] = test system: indomethacin-induced non-fatal intestinal ulceration; test: Indomethacin-induced (7.5 mg/kg p.o.) non-fatal intestinal ulceration, post-treatment, inflation technique; assay type: in vivo, rat (H-Wistar)
# Experimental: (§1) To evaluate the development of intestinal ulcers the so-called inflation technique by Ezer and Szporny (J. Pharm. Pharmacol. 27, 866 (1975)) was employed. By this method the progress of ulceration can be monitored quantitatively. The tensile strength of the intestinal wall expressed in mmHg weakens gradually parallel with the progress of ulceration.
# (b) Indomethacin-induced non-fatal ulceration
# Non-fasted H-Wistar rats weighing 120 to 150 g each were administered 7.5 mg/kg indomethacin orally, to induce non-fatal intestinal ulceration. 4, 24 and 48 hours, respectively, after the indomethacin treatment the animals were treated with the test material orally. The animals were killed 24 hours after the last treatment and 72 hours after the ulcer-induction performed with indomethacin, respectively. Ulceration was evaluated by the inflation technique.
# [4] = test system: indomethacin-induced intestinal ulceration; test: Indomethacin-induced fatal intestinal ulceration (15 mg/kg p.o.), inflation technique; assay type: in vivo, rat (female H-Wistar)
# Experimental: Indomethacin-induced intestinal ulceration
# Of the non-steroidal antiinflammatory agents indomethacin has not only a gastric-ulcer inducing side-effect but may also cause serious intestinal ulceration. Depending on the dose, the intestinal ulceration may be fatal, peritonitis due to intestinal perforations kills the animals.
# (a) Indomethacin-induced fatal intestinal ulceration
# Non-fasted, female H-Winstar rats, weighing 120-150 g each were treated orally with a 15 mg/kg dose of indomethacin (in Tween 80 suspension). […] Under these conditions it requires about 48 to 72 hours to detect intenstinal ulceration.
# as §1
# [5] = test system: formation of ulcers; settings: cited from earlier work
# [6] = indomethacin 15 mg/kg p.o. alone, n=16
# [7] = indomethacin 15 + 25 mg/kg p.o.
# [8] = indomethacin 15 + 50 mg/kg p.o.
smiles,measurement,setting,value
"CC(=O)Oc1ccccc1C(=O)O [Aspirin, reference compound]",Number of ulcers/stomach,[1],15.7 ± 3.0
same,Ulcer-free animals,[1],0%
C[N+]1(C)[C@@H]2CC[C@H]1CC(OC(=O)C1c3ccccc3Oc3ccccc31)C2.[Br-] (stereo partly drawn) [Gastrixon],"Indomethacin-induced intestinal ulceration, in words",[2],cannot prevent indomethacin-induced intestinal ulceration
"COc1ccc2c(c1)c(CC(=O)O)c(C)n2C(=O)c1ccc(Cl)cc1 [Indomethacin, reference compound]",T.s. of intestinal wall 72 hours after indomethacin treatment,"[3]; indomethacin 7.5 mg/kg p.o. alone, n=32, group B",185 ± 11 mm Hg
same,Intestinal wall resistency in % of normal,[4]; [6],20 % of normal
same,T.s. of intestinal wall 72 hours after treatment,[4]; [6],46 ± 12 mm Hg
"O=C(O)c1ccccc1O [Na--salicylate, reference compound]",ED100,"[4]; Rattus norvegicus, po",50 mg/kg
same,Intestinal wall resistency in % of normal,[4]; [7],57 % of normal
same,T.s. of intestinal wall 72 hours after treatment,[4]; [7],132 ± 17 mm Hg
same,Intestinal wall resistency in % of normal,[4]; [8],100 % of normal
same,T.s. of intestinal wall 72 hours after treatment,[4]; [8],231 ± 5 mm Hg
CC(C)[N+](C)(CCOC(=O)C1c2ccccc2Oc2ccccc21)C(C)C [Propanthelin],"Indomethacin-induced intestinal ulceration, in words",[2],cannot prevent indomethacin-induced intestinal ulceration
"CN1CCN(CC(=O)N2c3ccccc3C(=O)Nc3cccnc32)CC1 [pirenzepine, 5,11-dihydro-11-[(4-methyl-1-piperazinyl)-acetyl]-6H-pyrido[2,3-b][1,4] benzodiazepine-6-one]","Inhibition of the formation of ulcers, in words",[5]; compared to atropine,inhibits the formation of ulcers to the same extent as atropine
same,"Other anticholinergic effects (e.g. inhibition of peristalsis, accommodation disturbances of eye, inhibition of salivation)",[5]; in vivo,devoid of other anticholenergic effects
CNC(=C[N+](=O)[O-])NCCSCc1ccc(CN(C)C)o1 [ranitidine],"Non-fatal intestinal ulceration post-treatment, in words","[3]; post-treatment 4, 24 and 48 hours after indomethacin 7.5 mg/kg p.o.",ineffective
